This is an account of results in patent US20250163043A1 (TRANSTHERA SCIENCES (NANJING), INC., priority 2021, published 2025).

One test has as its target CDK9/CycT1 (Homo sapiens, UniProt P50750). Nature of the test: ADP-Glo kinase assay on CDK enzymatic activity, CDK9/CycT1. Type of test: biochemical. Conditions: 10 concentrations from 10 μM, 4-fold, 60 min room temperature. In outline:
(§1)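 Enzyme activity was measured by ADP-Glo luminescence following 60 min turnover of CDK tide peptide at room temperature. Compounds spanned ten 4-fold dilutions from 10 μM final, with 0.5% DMSO.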
A general note: In ADP-Glo the light output rises with the ADP produced.

A further test deals with CDK3/CycE1 (Homo sapiens, UniProt Q00526). As to the kind of experiment: ADP-Glo kinase assay on CDK enzymatic activity, CDK3/CycE1. Type of test: biochemical. Conditions: 10 concentrations from 10 μM, 4-fold, 60 min room temperature. In outline:
as §1

Test [1] deals with MV-4-11 (human myelomonocytic leukemia cells). As to the kind of experiment: CCK-8 cell proliferation assay, MV-4-11. In kind it is cell-based. As to conditions: MV4-11, 24 h incubation, 11 concentrations from 5000 nM, 3-fold, read-out: MV-4-11 cell proliferation IC50 (class). As to the method: Test samples: the compounds of the present invention, having structures shown above.
MV-4-11 (human myelomonocytic leukemia cells) and NCI-H929 (human myeloma cells).
The compounds were dissolved in DMSO and diluted 3-fold in the 96-well plate to obtain stock solutions with 11 concentration gradients. Each cell was inoculated into a 96-well plate, and the diluted compound stock solution was added to the 96-well plate to obtain a series of 11 concentration gradients of compound solutions with final concentrations of 5000 nM starting and 3-fold gradient decreasing, wherein the final DMSO content was […]. There was a medium containing 1‰ DMSO in the negative control well. The treated cells were incubated at 37° C. with 5% CO2 and 95% humidity, wherein MV-4-11 were incubated for 24 h and NCI-H929 for 72 h. After incubation was completed, each well was added with 10 μL of CCK-8 reagent, incubated for 1-3 h at room temperature and placed in the microplate reader, and the absorbance was read at 450 nm.
The inhibition rate was calculated according to the following formula: […]
ODcmpd: compound absorbance; ODpositive: average value of the absorbance of positive control without compound; ODvehicle: average value of the absorbance of solvent vehicle control.
IC50 values were fitted using GraphPad 7.0 based on inhibition rates of compounds at different concentrations.

The next test addresses CDK2/CycA2 (Homo sapiens, UniProt P24941). Nature of the test: ADP-Glo kinase assay on CDK enzymatic activity, CDK2/CycA2. Type of test: biochemical. Conditions: 10 concentrations from 10 μM, 4-fold, 60 min room temperature. In outline: as §1
Another test concerns the target CDK5/p25NCK (Homo sapiens, UniProt Q00535). Nature of the test: ADP-Glo kinase assay on CDK enzymatic activity, CDK5/p25NCK. In kind it is biochemical. Conditions: 10 concentrations from 10 μM, 4-fold, 60 min room temperature. In outline: as §1
Another test addresses CDK1/CycE1 (Homo sapiens, UniProt P06493). As to the kind of experiment: ADP-Glo kinase assay on CDK enzymatic activity, CDK1/CycE1. Type of test: biochemical. Conditions: ADP-Glo; 10 concentrations from 10 μM, 4-fold; 60 min room temperature; read-out: CDK1/CycE1/nM (IC50). In outline:
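Compounds in 10-point 4-fold dilutions from 10 μM final, preincubated 10 min with kinase, then substrate/ATP added; 60 min reaction at room temperature. ADP-Glo luminescence read.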

Molecules are shown by their SMILES. Where only a bound is given, the exact number is not on record here.

CDK3/CycE1, sequence (Q00526 whole entry, species assumed): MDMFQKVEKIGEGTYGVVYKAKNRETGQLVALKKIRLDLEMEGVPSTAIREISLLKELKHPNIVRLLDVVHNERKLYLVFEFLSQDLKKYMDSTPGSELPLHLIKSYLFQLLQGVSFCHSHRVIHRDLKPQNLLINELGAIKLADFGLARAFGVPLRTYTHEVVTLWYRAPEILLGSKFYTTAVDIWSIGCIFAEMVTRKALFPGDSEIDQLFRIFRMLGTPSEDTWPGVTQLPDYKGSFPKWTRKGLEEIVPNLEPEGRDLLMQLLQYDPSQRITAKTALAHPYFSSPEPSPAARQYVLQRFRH
CDK3/CycE1, sequence (P24864 whole entry partner, species assumed): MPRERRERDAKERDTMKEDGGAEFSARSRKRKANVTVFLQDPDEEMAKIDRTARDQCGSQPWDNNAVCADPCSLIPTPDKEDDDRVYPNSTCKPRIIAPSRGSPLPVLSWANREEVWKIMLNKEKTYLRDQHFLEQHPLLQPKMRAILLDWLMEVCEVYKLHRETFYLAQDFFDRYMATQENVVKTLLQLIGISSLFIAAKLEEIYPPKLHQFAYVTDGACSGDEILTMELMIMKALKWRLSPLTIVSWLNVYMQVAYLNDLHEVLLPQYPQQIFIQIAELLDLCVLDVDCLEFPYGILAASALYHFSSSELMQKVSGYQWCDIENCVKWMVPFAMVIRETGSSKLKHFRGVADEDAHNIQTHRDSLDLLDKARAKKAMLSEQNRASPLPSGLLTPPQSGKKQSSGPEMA
CDK1/CycE1, sequence (P06493 whole entry, species assumed): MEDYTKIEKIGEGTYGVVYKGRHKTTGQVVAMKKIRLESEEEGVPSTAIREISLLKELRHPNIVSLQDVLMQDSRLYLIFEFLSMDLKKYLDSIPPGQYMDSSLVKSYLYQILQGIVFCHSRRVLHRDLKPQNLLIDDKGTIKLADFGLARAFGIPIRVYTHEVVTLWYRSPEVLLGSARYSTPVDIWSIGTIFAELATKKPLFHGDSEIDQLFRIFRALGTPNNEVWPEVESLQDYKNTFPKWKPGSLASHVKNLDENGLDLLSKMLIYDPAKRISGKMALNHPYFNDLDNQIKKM
CDK1/CycE1, sequence (P24864 whole entry partner, species assumed): as the sequence (P24864 whole entry partner, species assumed) above
CDK5/p25NCK, sequence (Q00535 whole entry, species assumed): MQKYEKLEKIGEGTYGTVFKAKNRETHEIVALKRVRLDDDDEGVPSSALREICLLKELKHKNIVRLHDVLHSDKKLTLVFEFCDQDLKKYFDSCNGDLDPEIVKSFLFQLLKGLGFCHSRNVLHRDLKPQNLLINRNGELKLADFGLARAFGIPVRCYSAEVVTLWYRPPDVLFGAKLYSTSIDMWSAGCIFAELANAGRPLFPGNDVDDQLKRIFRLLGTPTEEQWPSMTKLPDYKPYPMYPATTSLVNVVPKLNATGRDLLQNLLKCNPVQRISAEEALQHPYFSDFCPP
CDK5/p25NCK, sequence (Q15078 99-307 partner limits assumed, species assumed): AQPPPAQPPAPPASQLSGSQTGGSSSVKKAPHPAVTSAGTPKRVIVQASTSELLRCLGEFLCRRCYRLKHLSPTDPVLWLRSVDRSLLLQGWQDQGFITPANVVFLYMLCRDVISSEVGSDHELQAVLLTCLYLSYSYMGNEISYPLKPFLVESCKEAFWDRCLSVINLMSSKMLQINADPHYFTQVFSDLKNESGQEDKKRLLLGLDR
CDK9/CycT1, sequence (P50750 whole entry): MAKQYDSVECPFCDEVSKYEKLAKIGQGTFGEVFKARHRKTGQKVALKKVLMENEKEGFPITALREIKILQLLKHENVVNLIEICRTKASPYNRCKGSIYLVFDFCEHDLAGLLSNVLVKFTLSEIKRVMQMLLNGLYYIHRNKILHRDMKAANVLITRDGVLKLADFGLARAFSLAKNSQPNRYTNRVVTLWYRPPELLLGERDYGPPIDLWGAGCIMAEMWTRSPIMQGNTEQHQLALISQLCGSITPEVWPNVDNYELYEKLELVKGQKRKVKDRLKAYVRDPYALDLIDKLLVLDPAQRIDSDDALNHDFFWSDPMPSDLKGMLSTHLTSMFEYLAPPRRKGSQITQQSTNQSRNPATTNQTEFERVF
CDK9/CycT1, sequence (O60563 whole entry partner): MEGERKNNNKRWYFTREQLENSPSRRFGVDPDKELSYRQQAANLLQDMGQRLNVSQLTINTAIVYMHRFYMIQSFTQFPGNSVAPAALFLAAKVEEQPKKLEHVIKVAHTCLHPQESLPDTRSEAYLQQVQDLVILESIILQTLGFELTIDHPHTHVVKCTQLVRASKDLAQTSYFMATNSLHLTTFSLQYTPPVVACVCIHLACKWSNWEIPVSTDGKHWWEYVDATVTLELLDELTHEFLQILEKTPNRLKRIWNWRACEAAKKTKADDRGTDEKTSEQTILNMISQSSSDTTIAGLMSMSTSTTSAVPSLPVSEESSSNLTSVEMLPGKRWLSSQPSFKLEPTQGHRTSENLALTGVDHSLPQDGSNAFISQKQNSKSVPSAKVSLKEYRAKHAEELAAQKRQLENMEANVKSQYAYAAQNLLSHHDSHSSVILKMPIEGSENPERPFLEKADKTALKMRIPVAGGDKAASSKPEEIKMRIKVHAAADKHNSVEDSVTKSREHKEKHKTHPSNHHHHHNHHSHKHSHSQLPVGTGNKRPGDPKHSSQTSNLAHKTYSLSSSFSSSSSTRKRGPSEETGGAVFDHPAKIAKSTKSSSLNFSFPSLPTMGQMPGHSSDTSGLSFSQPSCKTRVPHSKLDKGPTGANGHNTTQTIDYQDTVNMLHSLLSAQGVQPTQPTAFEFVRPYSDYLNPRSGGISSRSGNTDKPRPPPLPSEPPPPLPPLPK

Take `CC(=O)N[C@@H]1CCC[C@H](C(=O)Nc2cc3c(N4CC[C@@H](N)C4)nc(C#N)cc3cn2)C1` [Compound 20, (1S,3R)-3-acetamido-N-(5-((R)-3-aminopyrrolidin-1-yl)-7-cyano-2,6-naphthyridin-3-yl)cyclohexane-1-carboxamide]: the IC50 against CDK9/CycT1 is 11 nM; against CDK3/CycE1 it was 1750 nM; in test [1], above 1000 nM; at CDK2/CycA2, 2150 nM; against CDK5/p25NCK, 4320 nM.
The like results for `CC(=O)N[C@@H]1CCC[C@H](C(=O)Nc2cc3c(NC4CC4)nc(C#N)cc3cn2)C1` [Compound 16, (1S,3R)-3-acetamido-N-(7-cyano-5-(cyclopropylamino)-2,6-naphthyridin-3-yl)cyclohexane-1-carboxamide] were, in that order, 20 nM, 951 nM, above 1000 nM, 1460 nM and 2500 nM.
Take `CC(C)Nc1nc(C#N)cc2cnc(N[C@H]3CCCN(C)C3)cc12` [Compound 57, (S)-1-(isopropylamino)-7-((1-methylpiperidin-3-yl)amino)-2,6-naphthyridine-3-carbonitrile]: the IC50 at CDK9/CycT1 is 30 nM; against CDK3/CycE1, 2520 nM; in test [1] it was above 1000 nM; on CDK2/CycA2 it was 427 nM; on CDK5/p25NCK, 1760 nM.
On the same counts, the results for `CC(=O)N[C@@H]1CCC[C@H](C(=O)Nc2cc3c(NC(CCO)CCO)nc(C#N)cc3cn2)C1` [Compound 18, (1S,3R)-3-acetamido-N-(7-cyano-5-((1,5-dihydroxypentan-3-yl)amino)-2,6-naphthyridin-3-yl)cyclohexane-1-carboxamide] are 15 nM, above 10000 nM, above 1000 nM, 3370 nM and above 10000 nM.
The like results for `CC(=O)N[C@@H]1CCC[C@H](C(=O)Nc2cc3c(NC(C)(C)C)nc(C#N)cc3cn2)C1` [Compound 15, (1S,3R)-3-acetamido-N-(5-(tert-butylamino)-7-cyano-2,6-naphthyridin-3-yl)cyclohexane-1-carboxamide] were, in that order, 1 nM, 273 nM, 400 to 1000 nM, 182 nM and 770 nM.
On the same counts, the results for `CC(=O)N[C@@H]1CCC[C@H](C(=O)Nc2cc3c(NC4(C)CC4)nc(C#N)cc3cn2)C1` [Compound 17, (1S,3R)-3-acetamido-N-(7-cyano-5-((1-methylcyclopropyl)amino)-2,6-naphthyridin-3-yl)cyclohexane-1-carboxamide] are 4 nM, 750 nM, 400 to 1000 nM, 279 nM and 664 nM.
`CC(C)Nc1nc(C#N)cc2cnc(N[C@H]3CC[C@@H](O)C3)cc12` [Compound 36, 7-(((1S,3R)-3-hydroxycyclopentyl)amino)-1-(isopropylamino)-2,6-naphthyridine-3-carbonitrile]: the IC50 against CDK9/CycT1 is 1 nM; on CDK3/CycE1, 23 nM; in test [1] it was 400 to 1000 nM; at CDK2/CycA2 it was 4 nM; on CDK5/p25NCK it was 7 nM.
The like results for `CC(C)Nc1nc(C#N)cc2cnc(N[C@@H]3CNCC[C@@H]3F)cc12` [Compound 42, 7-(((3R,4S)-4-fluoropiperidin-3-yl)amino)-1-(isopropylamino)-2,6-naphthyridine-3-carbonitrile] were, in that order, 18 nM, 1300 nM, above 1000 nM, 2020 nM and 3040 nM.
As to `COCCN[C@H]1CC[C@H](Nc2cc3c(NC(C)C)nc(C#N)cc3cn2)C1` [Compound 56, 1-(isopropylamino)-7-(((1S,3S)-3-((2-methoxyethyl)amino)cyclopentyl)amino)-2,6-naphthyridine-3-carbonitrile], the IC50 was 3 nM against CDK9/CycT1; 1110 nM against CDK3/CycE1; 400 to 1000 nM in test [1]; 656 nM against CDK2/CycA2; 927 nM on CDK5/p25NCK.
On the same counts, the results for `CN[C@@H]1CC[C@H](Nc2cc3c(NC(C)C)nc(C#N)cc3cn2)C1` [Compound 32, 1-(isopropylamino)-7-(((1S,3R)-3-(methylamino)cyclopentyl)amino)-2,6-naphthyridine-3-carbonitrile] are 7 nM, 2050 nM, 400 to 1000 nM, 1080 nM and 1580 nM.
Regarding `CC(=O)N[C@H]1CCC[C@H](C(=O)Nc2cc3c(NC(C)C)nc(C#N)cc3cn2)C1` [Compound 25, (1S,3S)-3-acetamido-N-(7-cyano-5-(isopropylamino)-2,6-naphthyridin-3-yl)cyclohexane-1-carboxamide], the IC50 against CDK9/CycT1 was 12 nM; against CDK3/CycE1, 602 nM; in test [1], 400 to 1000 nM; against CDK2/CycA2, 521 nM; at CDK5/p25NCK it was 1210 nM.
As to `CC(=O)N[C@@H]1CCC[C@H](C(=O)Nc2cc3c(N4CC[C@@H](O)C4)nc(C#N)cc3cn2)C1` [Compound 19, (1S,3R)-3-acetamido-N-(7-cyano-5-((R)-3-hydroxypyrrolidin-1-yl)-2,6-naphthyridin-3-yl)cyclohexane-1-carboxamide], the IC50 against CDK9/CycT1 was 26 nM; against CDK3/CycE1, 1470 nM; in test [1] it was above 1000 nM; against CDK2/CycA2, 2370 nM; at CDK5/p25NCK, 6080 nM.
The like results for `CC(=O)N[C@@H]1CCC[C@H](C(=O)Nc2cc3c(N4CCC(F)(F)CC4)nc(C#N)cc3cn2)C1` [Compound 23, (1S,3R)-3-acetamido-N-(7-cyano-5-(4,4-difluoropiperidin-1-yl)-2,6-naphthyridin-3-yl)cyclohexane-1-carboxamide] were, in that order, 38 nM, 5650 nM, above 1000 nM, 3870 nM and above 10000 nM.
`N#Cc1cc2cnc(N[C@H]3CCCNC3)cc2c(C2CCCCC2)n1` [Compound 193, (S)-1-cyclohexyl-7-(piperidin-3-ylamino)-2,6-naphthyridine-3-carbonitrile]: the IC50 is 5 nM against CDK9/CycT1, 398 nM at CDK1/CycE1, 400 to 1000 nM in test [1] and 679 nM against CDK2/CycA2.
The like results for `CC(C)Nc1nc(C#N)cc2cnc(N[C@H]3C[C@@H](CO)C3)nc12` [Compound C29, 2-(((1s,3s)-3-(hydroxymethyl)cyclobutyl)amino)-8-(isopropylamino)pyrido[3,4-d]pyrimidine-6-carbonitrile] were, in that order, 3 nM, 51 nM, 400 to 1000 nM and 35 nM.
On to `CC(C)Oc1nc(C#N)cc2cnc(N[C@H]3C[C@@H](N)C3)cc12` [Compound 195, 7-(((1s,3s)-3-aminocyclobutyl)amino)-1-isopropoxy-2,6-naphthyridine-3-carbonitrile], for which the IC50 was 2 nM against CDK9/CycT1, 14 nM on CDK1/CycE1, 400 to 1000 nM in test [1] and 540 nM against CDK2/CycA2.
On to `CC(C)Nc1nc(C#N)cc2cnc(N[C@H]3CCC(=O)NC3)nc12` [Compound 106, (S)-8-(isopropylamino)-2-((6-oxopiperidin-3-yl)amino)pyrido[3,4-d]pyrimidine-6-carbonitrile], for which the IC50 on CDK9/CycT1 was 4 nM; at CDK3/CycE1, 29 nM; at CDK1/CycE1, 26 nM; in test [1] it was 400 to 1000 nM.
Take `N#Cc1cc2cnc(N[C@H]3CCCNC3)cc2c(OC2CC2)n1` [Compound 197, (S)-1-cyclopropoxy-7-(piperidin-3-ylamino)-2,6-naphthyridine-3-carbonitrile]: the IC50 is 14 nM against CDK9/CycT1 and above 1000 nM in test [1].
On the same counts, the results for `CCNc1nc(C#N)cc2cnc(N[C@H]3C[C@](C)(N)C3)cc12` [Compound 208, 7-(((1r,3r)-3-amino-3-methylcyclobutyl)amino)-1-(ethylamino)-2,6-naphthyridine-3-carbonitrile] are 7 nM and 400 to 1000 nM.
For the compound `CC(C)Nc1nc(C#N)cc2cnc(N[C@H]3CCC[C@@H](O)C3)cc12` [Compound 41, 7-(((1S,3R)-3-hydroxycyclohexyl)amino)-1-(isopropylamino)-2,6-naphthyridine-3-carbonitrile], the IC50 was 6 nM against CDK9/CycT1, 90 nM at CDK3/CycE1 and above 1000 nM in test [1].
